Measurements published in ChEMBL document CHEMBL5728485, “Biaryloxy derivatives as TTX-S blockers” (2021).
pIC50: −log10 of the molar value.

molecular target: Sodium channel protein type 9 subunit alpha (Homo sapiens, UniProt Q15858); test: EFS-FRET Assay: This screen is used to determine the effects of compounds on human Nav1.7 channels, utilizing electrical field stimulation (EFS) system in 96-well plate format on FDSS (Hamamatsu Photonics) platform. The changes of membrane potential are monitored with FRET dye pair, DiSBAC2(3) and PTS 18.
Sequence (Q15858 whole entry): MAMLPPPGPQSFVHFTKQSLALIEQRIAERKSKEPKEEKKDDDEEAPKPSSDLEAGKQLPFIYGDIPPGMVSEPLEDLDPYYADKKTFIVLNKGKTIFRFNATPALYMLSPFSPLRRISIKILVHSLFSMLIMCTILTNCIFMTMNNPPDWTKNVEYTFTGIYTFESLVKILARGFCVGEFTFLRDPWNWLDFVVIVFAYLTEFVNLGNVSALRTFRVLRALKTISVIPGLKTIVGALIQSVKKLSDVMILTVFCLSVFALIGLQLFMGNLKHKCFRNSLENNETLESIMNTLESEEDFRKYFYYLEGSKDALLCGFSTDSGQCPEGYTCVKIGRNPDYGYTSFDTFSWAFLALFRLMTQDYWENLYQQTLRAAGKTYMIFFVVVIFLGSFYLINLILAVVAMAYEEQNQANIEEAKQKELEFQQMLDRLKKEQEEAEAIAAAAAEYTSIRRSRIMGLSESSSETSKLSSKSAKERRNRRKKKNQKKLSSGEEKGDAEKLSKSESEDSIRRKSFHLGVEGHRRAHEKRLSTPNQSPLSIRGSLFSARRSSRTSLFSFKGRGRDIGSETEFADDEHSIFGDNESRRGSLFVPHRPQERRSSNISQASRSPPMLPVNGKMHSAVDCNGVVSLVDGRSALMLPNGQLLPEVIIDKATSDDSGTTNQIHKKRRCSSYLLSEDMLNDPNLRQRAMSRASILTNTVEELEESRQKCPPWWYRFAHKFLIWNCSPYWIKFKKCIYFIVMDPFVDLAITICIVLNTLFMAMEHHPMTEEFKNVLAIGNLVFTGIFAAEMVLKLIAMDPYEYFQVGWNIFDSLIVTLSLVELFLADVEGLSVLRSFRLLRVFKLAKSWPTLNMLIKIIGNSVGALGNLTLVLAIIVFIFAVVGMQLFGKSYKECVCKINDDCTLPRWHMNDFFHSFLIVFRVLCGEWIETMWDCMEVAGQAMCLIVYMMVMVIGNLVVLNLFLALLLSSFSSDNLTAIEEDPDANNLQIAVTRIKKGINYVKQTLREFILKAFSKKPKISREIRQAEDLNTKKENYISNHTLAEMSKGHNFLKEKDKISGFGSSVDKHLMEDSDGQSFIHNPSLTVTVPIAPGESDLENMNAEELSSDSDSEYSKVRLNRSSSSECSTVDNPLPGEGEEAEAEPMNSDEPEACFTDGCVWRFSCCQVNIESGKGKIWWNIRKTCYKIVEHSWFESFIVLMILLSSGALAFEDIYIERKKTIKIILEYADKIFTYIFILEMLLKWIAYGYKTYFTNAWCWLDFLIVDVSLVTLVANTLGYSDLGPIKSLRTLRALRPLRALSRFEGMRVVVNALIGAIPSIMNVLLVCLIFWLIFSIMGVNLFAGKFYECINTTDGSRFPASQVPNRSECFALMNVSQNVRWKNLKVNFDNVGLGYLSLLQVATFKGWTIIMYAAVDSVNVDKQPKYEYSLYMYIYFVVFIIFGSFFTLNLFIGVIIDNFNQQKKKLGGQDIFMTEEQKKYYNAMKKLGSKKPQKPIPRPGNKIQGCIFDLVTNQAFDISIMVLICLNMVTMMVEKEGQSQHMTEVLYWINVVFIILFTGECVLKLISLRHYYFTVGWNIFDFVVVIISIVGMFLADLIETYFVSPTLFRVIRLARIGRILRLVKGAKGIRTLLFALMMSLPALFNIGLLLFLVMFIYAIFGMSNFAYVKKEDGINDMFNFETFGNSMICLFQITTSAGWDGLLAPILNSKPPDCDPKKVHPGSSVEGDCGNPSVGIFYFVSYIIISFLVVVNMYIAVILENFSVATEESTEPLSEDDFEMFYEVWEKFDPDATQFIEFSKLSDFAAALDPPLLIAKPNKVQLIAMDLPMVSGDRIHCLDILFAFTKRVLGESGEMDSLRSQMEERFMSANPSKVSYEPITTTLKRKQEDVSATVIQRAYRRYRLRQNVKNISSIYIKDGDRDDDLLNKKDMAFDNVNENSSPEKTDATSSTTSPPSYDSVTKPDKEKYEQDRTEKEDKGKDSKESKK

pIC50, > 6.30:
COC1CN(C(=O)c2cc(OCC3CC3)cc(-c3cc(F)cc(OCc4ccc(C(=O)NS(C)(=O)=O)cc4F)c3)c2)C1
CS(=O)(=O)NC(=O)c1ccc(COc2cccc(-c3ccc(OCC4CCC(F)(F)CC4)nc3)c2)cc1
Cc1cc(OCC2CC2)ncc1-c1cccc(OCc2ccc(C(=O)NS(C)(=O)=O)cc2)c1
Cc1ccc(OCc2ccc(C(=O)NS(C)(=O)=O)cc2F)cc1-c1ccc(OCC2CC2)nc1
Cc1cc(OCC2CC2)ncc1-c1cccc(OCc2ccc(C(=O)NS(C)(=O)=O)cc2F)c1
CS(=O)(=O)NC(=O)c1ccc(COc2cccc(-c3cncc(OCC4CC4)c3)c2)cc1
CS(=O)(=O)NC(=O)c1ccc(COc2cccc(-c3ccc(OCC4CC4)cc3)c2)cc1
CS(=O)(=O)NC(=O)c1ccc(COc2cc(F)cc(-c3cc(OCC4CC4)cc(C(=O)N4CCOCC4)c3)c2)c(F)c1
CS(=O)(=O)NC(=O)c1cc(Cl)c(COc2cccc(-c3ccc(OCC4CC4)nc3)c2)cc1F
CS(=O)(=O)NC(=O)c1ccc(COc2ccc(F)c(-c3cnc(OCC4CC4)cn3)c2)c(F)c1
CS(=O)(=O)NC(=O)c1ccc(COc2cc(F)cc(-c3cc(OCC4CC4)ncn3)c2)cc1
CS(=O)(=O)NC(=O)c1ccc(COc2ccc(F)c(-c3ccc(OCC4CC4)nc3)c2)c(F)c1
CS(=O)(=O)NC(=O)c1ccc(COc2cccc(-c3ccc(OCC4CCOC4)nc3)c2)c(F)c1 (stereo not given)
Cc1c(-c2cc(OCc3ccc(C(=O)NS(C)(=O)=O)cc3F)ccc2F)ccnc1OCC1CC1
O=C(NS(=O)(=O)c1cccs1)c1ccc(COc2cccc(-c3ccc(OCC4CC4)nc3)c2)c(F)c1
CS(=O)(=O)NC(=O)c1ccc(COc2cccc(-c3ccc(OCC4CC4)nc3)c2)nc1
CS(=O)(=O)NC(=O)c1ccc(COc2cccc(-c3cnc(OCC4CCC4)c(CO)c3)c2)c(F)c1
CS(=O)(=O)NC(=O)c1ccc(COc2cccc(-c3ccc(OCC4CCC4)nc3)c2)cc1
CS(=O)(=O)NC(=O)c1ccc(COc2cccc(-c3ccc(OCC4CCOCC4)nc3)c2)cc1
O=C(NS(=O)(=O)C1CC1)c1ccc(COc2cc(F)cc(-c3ccc(OCC4CC4)nc3)c2)c(F)c1
COCCOc1cc(OCC2CC2)cc(-c2cc(F)cc(OCc3ccc(C(=O)NS(C)(=O)=O)cc3F)c2)c1
Cc1c(OCC2CC2)ncnc1-c1cccc(OCc2ccc(C(=O)NS(C)(=O)=O)cc2F)c1
CS(=O)(=O)NC(=O)c1ccc(COc2cccc(-c3ccnc(OCC4CC4)c3)c2)c(F)c1
CS(=O)(=O)NC(=O)c1ccc(COc2cccc(-c3cnc(OCC4CC4)nc3)c2)c(F)c1
CN(CC1CC1)c1cc(-c2cccc(OCc3ccc(C(=O)NS(C)(=O)=O)cc3F)c2)ccn1
O=C(NS(=O)(=O)C1CC1)c1ccc(COc2cccc(-c3ccc(OCC4CCOCC4)nc3)c2)cc1
CS(=O)(=O)NC(=O)c1ccc(COc2cccc(-c3cncc(OCC4CC4)n3)c2)cc1
CS(=O)(=O)NC(=O)c1ccc(COc2cccc(-c3ccnc(OCC4CC4)c3)c2)cc1
CS(=O)(=O)NC(=O)c1ccc(COc2cc(F)cc(-c3cnc(OCC4CC4)c(Cl)c3)c2)c(F)c1
CS(=O)(=O)NC(=O)c1ccc(COc2cc(Cl)cc(-c3ccc(OCC4CC4)nc3)c2)cc1
CS(=O)(=O)NC(=O)c1cc(C2CC2)c(COc2cccc(-c3ccc(OCC4CC4)nc3)c2)cc1F
Cc1cc(OCc2ccc(C(=O)NS(=O)(=O)C3CC3)cc2F)cc(-c2ccc(OCC3CC3)nc2)c1
CS(=O)(=O)NC(=O)c1ccc(COc2cc(F)cc(-c3cncc(OCC4CC4)n3)c2)cc1
CS(=O)(=O)NC(=O)c1ccc(COc2cccc(-c3cncc(OCC4CC4)n3)c2)c(F)c1
Cc1c(OCC2CC2)ncnc1-c1cccc(OCc2ccc(C(=O)NS(C)(=O)=O)cc2)c1
Cc1nc(OCC2CCC2)ccc1-c1cc(F)cc(OCc2ccc(C(=O)NS(C)(=O)=O)cc2)c1
CS(=O)(=O)NC(=O)c1ccc(COc2cc(F)cc(-c3cc(OCC(N)=O)cc(OCC4CC4)c3)c2)c(F)c1
CCS(=O)(=O)NC(=O)c1ccc(COc2cc(F)cc(-c3ccc(OCC4CC4)nc3)c2)cc1
CS(=O)(=O)NC(=O)c1ccc(COc2ccc(F)c(-c3ccc(OCC4CC4)nc3)c2)cc1
CS(=O)(=O)NC(=O)c1ccc(COc2cc(-c3cncnc3)cc(-c3ccc(OCC4CC4)nc3)c2)cc1
CS(=O)(=O)NC(=O)c1ccc(COc2cccc(-c3ccc(OCC4CC4)nc3)n2)cc1
CS(=O)(=O)NC(=O)c1ccc(COc2cccc(-c3cncc(OCC4CC4)c3)c2)c(F)c1
CS(=O)(=O)NC(=O)c1ccc(COc2cccc(-c3cnc(OCC4CCC4)c(CO)c3)c2)cc1
CS(=O)(=O)NC(=O)c1ccc(COc2cccc(-c3cnc(OCC4CC4)cn3)c2)cc1
CS(=O)(=O)NC(=O)c1ccc(COc2cccc(-c3ccn(CC4CC4)n3)c2)c(F)c1
CS(=O)(=O)NC(=O)c1ccc(COc2cccc(-c3cccc(OCC4CC4)n3)c2)c(F)c1
Cc1c(OCC2CC2)ncnc1-c1cc(F)cc(OCc2ccc(C(=O)NS(C)(=O)=O)cc2)c1
CS(=O)(=O)NC(=O)c1ccc(COc2cc(F)cc(-c3ccc(OCC4CC4)cn3)c2)cc1
CS(=O)(=O)NC(=O)c1ccc(COc2cc(F)cc(-c3cnc(OCC4CC4)cn3)c2)cc1
CC(C)S(=O)(=O)NC(=O)c1ccc(COc2cccc(-c3ccc(OCC4CC4)nc3)c2)c(F)c1
Cc1cc(-c2cccc(OCc3ccc(C(=O)NS(C)(=O)=O)cc3F)c2)cnc1OCC1CC1
CS(=O)(=O)NC(=O)c1ccc(COc2cccc(-c3ncc(OCC4CC4)cc3F)c2)c(F)c1
CS(=O)(=O)NC(=O)c1ccc(COc2cccc(-c3cnc(OCC4CCC4)cn3)c2)c(F)c1
O=C(NS(=O)(=O)c1cccs1)c1ccc(COc2cccc(-c3ccc(OCC4CC4)nc3)c2)cc1
CS(=O)(=O)NC(=O)c1ccc(COc2cccc(-c3cccc(OCC4CC4)n3)c2)cc1
CS(=O)(=O)NC(=O)c1ccc(COc2cc(F)cc(-c3cc(OCC4CC4)ccn3)c2)cc1
CN(CC1CC1)c1ncc(-c2cccc(OCc3ccc(C(=O)NS(C)(=O)=O)cc3F)c2)cn1
CS(=O)(=O)NC(=O)c1ccc(COc2cccc(-c3ccc(OCC4CC4)nc3)c2)c(C#N)c1
CS(=O)(=O)NC(=O)c1ccc(COc2cc(F)cc(-c3ncc(OCC4CC4)cn3)c2)cc1
O=C(NS(=O)(=O)C1CC1)c1cc(Cl)c(COc2cccc(-c3ccc(OCC4CC4)nc3)c2)cc1F
O=C(NS(=O)(=O)CC1CC1)c1ccc(COc2cccc(-c3ccc(OCC4CC4)nc3)c2)c(F)c1
CS(=O)(=O)NC(=O)c1ccc(COc2cccc(-c3cc(OCC4CC4)ccn3)c2)c(F)c1
CS(=O)(=O)NC(=O)c1ccc(COc2cc(-c3cccnc3)cc(-c3ccc(OCC4CC4)nc3)c2)cc1
Cc1nc(OCC2CC2)ccc1-c1cccc(OCc2ccc(C(=O)NS(C)(=O)=O)cc2)c1
CS(=O)(=O)NC(=O)c1ccc(COc2cc(F)cc(-c3cnc(OCC4CC4)nc3)c2)cc1
CS(=O)(=O)NC(=O)c1ccc(COc2cccc(-c3ncc(OCC4CC4)cc3Cl)c2)cc1
Cc1cc(OCC2CCC2)cnc1-c1cccc(OCc2ccc(C(=O)NS(C)(=O)=O)cc2F)c1
Cc1cc(OCC2CC2)cnc1-c1cc(F)cc(OCc2ccc(C(=O)NS(C)(=O)=O)cc2)c1
O=C(NS(=O)(=O)C1CC1)c1ccc(COc2cccc(-c3ncc(OCC4CC4)cn3)c2)cc1
CS(=O)(=O)NC(=O)c1ccc(COc2cccc(-c3ccc(OCC4CCC4)nc3)c2)nc1
